Data reported in patent US7358359B2, “Antibacterial agents” (University of Washington, priority 2003, dated 2008).
≈ marks a conversion by molar mass, not a printed value. Where two headings read alike, the source gives them in different places.

How the values were obtained:
Format in all cases: cell-based
Burkholderia cepacia = experiment: MIC vs non-fermenting organisms: Burkholderia cepacia; conditions: B. cepacia, comparator antibacterials
Procedure: (§1) Bacterial isolates were cultivated from −70° C. frozen stocks by two consecutive overnight passages at 35° C. in ambient air on 5% blood agar (Remel, Lenexa, Kans.). Clinical isolates tested were from a collection composed of isolates collected during clinical trials and recent clinical isolates obtained from various geographically diverse hospitals in the US. Quality control and primary panel strains were from the American Type Culture Collection (ATCC; Rockville, Md.), with the exception of P. aeruginosa PAO200, a strain with a deletion of the mexABoprM genes that was received from Dr. H. Schweizer.
(§2) Minimum Inhibitory Concentrations (MICs) were determined by the broth microdilution method in accordance with the National Committee for Clinical Laboratory Standards (NCCLS) guidelines. In brief, organism suspensions were are adjusted to a 0.5 McFarland standard to yield a final inoculum between 3×10^5 and 7×10^5 colony-forming units (CFU)/mL. Drug dilutions and inocula were made in sterile, cation adjusted Mueller-Hinton Broth (Remel). An inoculum volume of 100 μl was added to wells containing 100 μl of broth with 2-fold serial dilutions of drug. All inoculated microdilution trays were incubated in ambient air at 35° C. for 18-24 hours. Following incubation, the lowest concentration of the drug that prevented visible growth was recorded as the MIC.

[1] = system: Stenotrophomonas maltophilia; experiment: MIC vs non-fermenting organisms: Stenotrophomonas maltophilia; conditions: S. malt., comparator antibacterials
Procedure: as §1, §2

Klebsiella pneumoniae = experiment: MIC vs enteric organisms: Klebsiella pneumoniae; conditions: K. pneu., comparator antibacterials
Procedure: as §1, §2

[2] = system: Pseudomonas aeruginosa cystic fibrosis isolate 3236; experiment: MIC vs cystic fibrosis isolate of P. aeruginosa 3236 (sensitive to most antibacterials); conditions: strain 3236, Sensitive, comparator antibacterials
Procedure: as §1, §2

[3] = system: Pseudomonas aeruginosa cystic fibrosis isolate 2196; experiment: MIC vs cystic fibrosis isolate of P. aeruginosa 2196 (resistant to ciprofloxacin); conditions: strain 2196, Cipro R, comparator antibacterials
Procedure: as §1, §2

[4] = system: Pseudomonas aeruginosa cystic fibrosis isolate 3232; experiment: MIC vs cystic fibrosis isolate of P. aeruginosa 3232 (Ceftaz. R); conditions: strain 3232, Ceftaz. R, comparator antibacterials
Proteus mirabilis = experiment: MIC vs enteric organisms: Proteus mirabilis; conditions: P. mir., comparator antibacterials
Procedure: as §1, §2

[5] = system: Pseudomonas aeruginosa cystic fibrosis isolate 3198; experiment: MIC vs cystic fibrosis isolate of P. aeruginosa 3198 (sensitive to most antibacterials); conditions: strain 3198, Sensitive, comparator antibacterials
Procedure: as §1, §2

[6] = system: Acinetobacter calcoaceticus; experiment: MIC vs non-fermenting organisms: Acinetobacter calcoaceticus; conditions: Acinet. calc., comparator antibacterials
Procedure: as §1, §2

[7] = system: Pseudomonas aeruginosa cystic fibrosis isolate 3206; experiment: microbe, parasite or virus in culture; conditions: strain 3206, MDR, comparator antibacterials, read-out: MIC
Procedure: as §1, §2

[8] = system: Pseudomonas aeruginosa cystic fibrosis isolate 1145; experiment: microbe, parasite or virus in culture; conditions: strain 1145, MDR, comparator antibacterials, read-out: MIC
Procedure: as §1, §2

[9] = system: non-CF clinical isolates of P. aeruginosa; experiment: MIC vs non-CF clinical isolates of P. aeruginosa; conditions: Pseudomonas aeruginosa, comparator antibacterials
Procedure: as §1, with “Schweizer. […] Strain Z61 (ATCC 35151) is also hypersusceptible to antibacterials. It is thought that the hypersusceptibility of this strain is the result of increased permeability of its outer membrane (Angus B L et al, Antimicrobial Agents and Chemotherapy 1982 21,299-309: Outer membrane permeability in Pseudomonas aeruginosa: Comparison of a wild-type with an antibacterial-supersusceptible mutant).” for “Schweizer.”
as §2, with “MIC. Performance of the assay was monitored by the use of laboratory quality-control strains against tobramycin, that has a defined MIC spectrum, in accordance with NCCLS guidelines.” for “MIC.”

Klebsiella oxytoca = experiment: MIC vs enteric organisms: Klebsiella oxytoca; conditions: K. oxy., comparator antibacterials
Procedure: as §1, §2

Enterobacter cloacae = experiment: MIC vs enteric organisms: Enterobacter cloacae; conditions: E. clo., comparator antibacterials
Procedure: as §1, §2

Alcaligenes xylosoxidans = experiment: MIC vs non-fermenting organisms: Alcaligenes xylosoxidans; conditions: Achromobacter xylosoxidans; Alcal. xyl; comparator antibacterials
Procedure: as §1, §2

[10] = system: Pseudomonas aeruginosa cystic fibrosis isolate 3317; experiment: MIC vs cystic fibrosis isolate of P. aeruginosa 3317 (resistant to aztreonam); conditions: strain 3317, Aztr. R, comparator antibacterials
Procedure: as §1, §2

Escherichia coli = experiment: MIC vs enteric organisms: Escherichia coli clinical isolates
Procedure: as §1, §2

[11] = system: Pseudomonas aeruginosa cystic fibrosis isolate 3224; experiment: MIC vs cystic fibrosis isolate of P. aeruginosa 3224; conditions: strain 3224, Tobra R, comparator antibacterials
Procedure: as §1, §2

Serratia marcescens = experiment: MIC vs enteric organisms: Serratia marcescens; conditions: S. marc., comparator antibacterials
Procedure: as §1, §2

Enterobacter aerogenes = experiment: MIC vs enteric organisms: Enterobacter aerogenes; conditions: Klebsiella aerogenes; E. aer.; comparator antibacterials
Procedure: as §1, §2

[12] = Burkholderia cepacia, read-out: MIC
[13] = Escherichia coli, E. coli 2788, comparator antibacterials, read-out: MIC

C[C@H]1[C@H](NC(=O)/C(=N\OC(C)(C)C(=O)O)c2csc(N)n2)C(=O)N1S(=O)(=O)O [Aztreonam, aztreonam, reference compound]
MIC (Burkholderia cepacia; [12]): 64 µg/mL (≈ 147 µM) | MIC [1]: 16 µg/mL (≈ 36.7 µM) | MIC (Klebsiella pneumoniae): 2 µg/mL (≈ 4.59 µM) | MIC [2]: 0.5 µg/mL (≈ 1.15 µM) | MIC [3]: 1 µg/mL (≈ 2.3 µM) | MIC [4]: 1 µg/mL (≈ 2.3 µM) | MIC (Proteus mirabilis): ≤ 0.13 µg/mL | MIC [5]: 1 µg/mL (≈ 2.3 µM) | MIC [6]: 32 µg/mL (≈ 73.5 µM) | MIC [7]: > 128 µg/mL | MIC [8]: > 128 µg/mL | MIC ([9]; P. aer 12307): 16 µg/mL (≈ 36.7 µM) | MIC ([9]; P. aer psa-6b): 32 µg/mL (≈ 73.5 µM) | MIC (Klebsiella oxytoca): 0.5 µg/mL (≈ 1.15 µM) | MIC (Enterobacter cloacae): ≤ 0.13 µg/mL | MIC (Alcaligenes xylosoxidans): 32 µg/mL (≈ 73.5 µM) | MIC [10]: 64 µg/mL (≈ 147 µM) | MIC (Escherichia coli; E. coli 1619, comparator antibacterials): 64 µg/mL (≈ 147 µM) | MIC (Escherichia coli; Escherichia coli, E. coli 1619, comparator antibacterials, read-out: MIC): 128 µg/mL (≈ 294 µM) | MIC (Escherichia coli; [13]): ≤ 0.13 µg/mL | MIC [11]: 1 µg/mL (≈ 2.3 µM) | MIC (Serratia marcescens): ≤ 0.13 µg/mL

CO/N=C(\C(=O)N[C@@H]1C(=O)N2C(C(=O)[O-])=C(C[N+]3(C)CCCC3)CS[C@H]12)c1csc(N)n1 [Cefepime, cefepime, reference compound]
MIC (Burkholderia cepacia): 16 µg/mL (≈ 33.3 µM) | MIC (Burkholderia cepacia; [12]): 32 µg/mL (≈ 66.6 µM) | MIC (Klebsiella pneumoniae): 8 µg/mL (≈ 16.6 µM) | MIC [2]: 2 µg/mL (≈ 4.16 µM) | MIC [3]: 2 µg/mL (≈ 4.16 µM) | MIC [4]: 2 µg/mL (≈ 4.16 µM) | MIC (Proteus mirabilis): ≤ 0.13 µg/mL | MIC [5]: 4 µg/mL (≈ 8.32 µM) | MIC [6]: 8 µg/mL (≈ 16.6 µM) | MIC [7]: 32 µg/mL (≈ 66.6 µM) | MIC [8]: > 128 µg/mL | MIC ([9]; P. aer 12307): 2 µg/mL (≈ 4.16 µM) | MIC ([9]; P. aer psa-6b): 8 µg/mL (≈ 16.6 µM) | MIC (Klebsiella oxytoca): ≤ 0.13 µg/mL | MIC (Enterobacter cloacae): ≤ 0.13 µg/mL | MIC (Alcaligenes xylosoxidans): 8 µg/mL (≈ 16.6 µM) | MIC [10]: 8 µg/mL (≈ 16.6 µM) | MIC (Escherichia coli; [13]): ≤ 0.13 µg/mL | MIC [11]: 8 µg/mL (≈ 16.6 µM) | MIC (Serratia marcescens): ≤ 0.13 µg/mL

CC(C)(O/N=C(\C(=O)N[C@@H]1C(=O)N2C(C(=O)[O-])=C(C[n+]3ccccc3)CS[C@H]12)c1csc(N)n1)C(=O)O [Ceftazidime, ceftazidime, reference compound]
MIC (Burkholderia cepacia): 4 µg/mL (≈ 7.32 µM) | MIC (Burkholderia cepacia; [12]): 8 µg/mL (≈ 14.6 µM) | MIC ([1]; Stenotrophomonas maltophilia, read-out: MIC): 1 µg/mL (≈ 1.83 µM) | MIC (Klebsiella pneumoniae): 8 µg/mL (≈ 14.6 µM) | MIC [2]: 0.25 µg/mL (≈ 0.457 µM) | MIC [3]: 2 µg/mL (≈ 3.66 µM) | MIC [4]: 64 µg/mL (≈ 117 µM) | MIC (Proteus mirabilis): ≤ 0.13 µg/mL | MIC [5]: 2 µg/mL (≈ 3.66 µM) | MIC [6]: 16 µg/mL (≈ 29.3 µM) | MIC [7]: > 128 µg/mL | MIC [8]: > 128 µg/mL | MIC ([9]; P. aer 12307): 4 µg/mL (≈ 7.32 µM) | MIC ([9]; P. aer psa-6b): 64 µg/mL (≈ 117 µM) | MIC (Klebsiella oxytoca): 0.25 µg/mL (≈ 0.457 µM) | MIC (Enterobacter aerogenes): 32 µg/mL (≈ 58.5 µM) | MIC (Enterobacter cloacae): 0.25 µg/mL (≈ 0.457 µM) | MIC (Alcaligenes xylosoxidans): 1 µg/mL (≈ 1.83 µM) | MIC [10]: 4 µg/mL (≈ 7.32 µM) | MIC (Escherichia coli; Escherichia coli): > 128 µg/mL | MIC (Escherichia coli; [13]): 0.25 µg/mL (≈ 0.457 µM) | MIC [11]: 2 µg/mL (≈ 3.66 µM) | MIC (Serratia marcescens): 0.25 µg/mL (≈ 0.457 µM)
